Experimental data from patent US20240358717A1, “APPLICATION OF B-ECDYSTERONE IN PREPARATION OF MEDICINE FOR URIC ACID-LOWERING AND HYPERURICEMIC KIDNEY INJURY” (Institute of Chinese Materia Medica, China Academy of …, priority 2023, published 2024).

Key:
Type in all cases: in vivo, SD rats
rats with hyperuricemia [1] = assay: Effect on blood uric acid level in rats with hyperuricemia (adenine combined with ethambutol model); details: for Blood uric acid: serum, 16 h fasting after last administration, mean±SD; for Uric acid reduction Percentage: versus model group
Procedure: There were 80 Male SPF grade SD rats, weighing 200-220 g, were purchased from Beijing Vital River Laboratory Animal Technology Co., Ltd., license No. SCXK (Beijing) 2016-0006. The animals were housed in a barrier environment animal laboratory, with automatic temperature control (temperature 20-26° C.), relative humidity 40-70%, and full fresh air. Artificial light was adopted with a 12-hour light-dark cycle. Group experiments were started after 1 day of acclimatization. Animals were fed with standard rat pellet feed, provided by Beijing Keao Xieli Feed Co. Ltd., with purified water.
The rats were randomly divided into 10 groups of 8 rats each:
(1) negative control group (control group); (2) model group; (3) β-ecdysterone underdose group-1, 6 mg/kg; (4) β-ecdysterone underdose group-2, 12 mg/kg; (5) β-ecdysterone low dose group 25 mg/kg; (6) β-ecdysterone medium dose group 50 mg/kg; (7) β-ecdysterone high dose group 100 mg/kg; (8) β-ecdysterone overdose group 200 mg/kg; (9) allopurinol group 25 mg/kg; (10) benzbromarone group 25 mg/kg.
1.2 Establishment of Adenine Combined with Ethambutol-Induced Hyperuricemia Combined with Kidney Injury Model in Rats
Adenine was purchased from Sigma-Aldrich (USA), and 0.5% CMC-Na (sodium carboxymethyl cellulose) solution was used to formulate a suspension at a concentration of 20 mg/mL, ready-to-use, with an administration volume of 5 mL/kg and a dosage of 100 mg/kg. Ethambutol hydrochloride tablets were purchased from Chengdu Jinhua Pharmaceutical Co., Ltd, and 0.5% CMC-Na solution was used to formulate a suspension at a concentration of 50 mg/ml, ready-to-use, with an administration volume of 5 mL/kg and a dosage of 250 mg/kg. The modeling drug adenine 100 mg/kg and ethambutol 250 mg/kg were administered by gavage in the model group and the CQ group at each dose, from day 1, and both were administered once a day for a total of 7 days, to prepare a hyperuricemia rat model. An equal amount of 0.5% CMC-Na solution was administered by gavage in the control group at the relative time.
Observation and detection indicators: fasting for 16 hours after the last administration, blood was collected from the abdominal aorta of rats in each group, centrifuged at 3500 rpm for 15 minutes after standing, separated and collected serum, and the content of uric acid in the serum was measured using an Automatic Chemical Analysis.
Statistical methods: data were expressed as mean±standard deviation and analyzed by one-way ANOVA. Each administration group was compared with the model group separately.

rats with hyperuricemia [2] = assay: Kidney function biochemical indicators (serum BUN and SCr) in rats with hyperuricemia; details: for BUN / SCr: serum, mean±SD
Excerpt: The establishment of the model as well as the experimental grouping and administration were the same as in Example 1.
1.1 Kidney function biochemical indicators detection: the method of blood sampling and serum collection was the same as in Example 1, and an Automatic Chemical Analysis was used to detect the content of serum creatinine (SCr) by using the creatine oxidase method, and to detect the content of blood urea nitrogen (BUN) by using the urease method and the kinetic method. the effect of β-ecdysterone on the level of blood BUN and SCr of rats with hyperuricemia is shown in Table 2.

rats with hyperuricemia [3] = assay: Urate deposition in rat kidney tissues (hexamine silver staining)
Procedure: (§1) The establishment of the model as well as the experimental grouping and administration were the same as in Example 1. 1.2 Pathological examination of kidney tissue: anesthetize rats, dissect, and remove kidney tissue. The kidney tissues were fixed with 10% neutral formalin. After sufficient fixation, sampling, gradient dehydration, xylene transparency, paraffin embedding, and preparation of 3 μm paraffin sections were performed according to routine procedures. The kidney tissue lesions as well as urate deposition in the kidney tissues were examined by light microscopy using, HE (hematoxylin & eosin) staining and hexamine silver staining, respectively. […] Among them, A in FIG. 1 and FIG. 2 is the control group, B is the model group, C and D are both β-ecdysterone underdose group, E is β-ecdysterone low dose group, F is β-ecdysterone medium dose group, G is β-ecdysterone high dose group, H is β-ecdysterone overdose group, I is allopurinol group, and J is benzbromarone group. The length unit in the lower right corner of the figure is 50 μm.

rats with hyperuricemia [4] = assay: Pathological examination of rat kidney tissue (HE staining); details: for pathology of kidney tissues: HE staining; for protective effect on kidney injury combined with hyperuricemia: overall conclusion from hexamine silver staining, biochemical and pathological results
Procedure: as §1

Oc1ncnc2[nH]ncc12 [Allopurinol, allopurinol, reference compound]
Blood uric acid (rats with hyperuricemia [1]; 25 mg/kg): 109.11 ± 21.66 µmol/L
Uric acid reduction Percentage (rats with hyperuricemia [1]; 25 mg/kg): 48.90%
BUN (rats with hyperuricemia [2]; 25 mg/kg): 12.17 ± 3.03 mmol/L
SCr (rats with hyperuricemia [2]; 25 mg/kg): 48.16 ± 6.95 µmol/L
serum BUN level compared with the model group (rats with hyperuricemia [2]; positive drugs, 25 mg/kg): did not show significant differences
serum SCr level compared with the model group (rats with hyperuricemia [2]; positive drugs, 25 mg/kg): did not show significant differences
urate crystals deposition in kidney tissue (rats with hyperuricemia [3]; positive drugs, 25 mg/kg): significantly reduced
pathology of kidney tissues (rats with hyperuricemia [4]; 25 mg/kg): severe renal tubules dilatation, tubular wall thinning, eosinophilic degeneration, and inflammatory cell infiltration were observed
protective effect on kidney injury combined with hyperuricemia (rats with hyperuricemia [4]): did not have a significant protective effect

CCc1oc2ccccc2c1C(=O)c1cc(Br)c(O)c(Br)c1 [Benzbromarone, benzbromarone, reference compound]
Blood uric acid (rats with hyperuricemia [1]; 25 mg/kg): 112.53 ± 30.78 µmol/L
Uric acid reduction Percentage (rats with hyperuricemia [1]; 25 mg/kg): 44.37%
BUN (rats with hyperuricemia [2]; 25 mg/kg): 10.91 ± 2.66 mmol/L
SCr (rats with hyperuricemia [2]; 25 mg/kg): 50.64 ± 7.92 µmol/L
serum BUN level compared with the model group (rats with hyperuricemia [2]; positive drugs, 25 mg/kg): did not show significant differences
serum SCr level compared with the model group (rats with hyperuricemia [2]; positive drugs, 25 mg/kg): did not show significant differences
urate crystals deposition in kidney tissue (rats with hyperuricemia [3]; positive drugs, 25 mg/kg): significantly reduced
pathology of kidney tissues (rats with hyperuricemia [4]; 25 mg/kg): severe renal tubules dilatation, tubular wall thinning, eosinophilic degeneration, and inflammatory cell infiltration were observed
protective effect on kidney injury combined with hyperuricemia (rats with hyperuricemia [4]): did not have a significant protective effect

CC(C)(O)CC[C@@H](O)[C@](C)(O)[C@H]1CC[C@@]2(O)C3=CC(=O)[C@@H]4C[C@@H](O)[C@@H](O)C[C@]4(C)[C@H]3CC[C@]12C [β-ecdysterone]
Blood uric acid (rats with hyperuricemia [1]; 6 mg/kg): 154.76 ± 38.71 µmol/L
Uric acid reduction Percentage (rats with hyperuricemia [1]; 6 mg/kg): 4.98%
Blood uric acid (rats with hyperuricemia [1]; 12 mg/kg): 147.55 ± 39.28 µmol/L
Uric acid reduction Percentage (rats with hyperuricemia [1]; 12 mg/kg): 10.10%
Blood uric acid (rats with hyperuricemia [1]; 25 mg/kg): 117.91 ± 43.74 µmol/L
Uric acid reduction Percentage (rats with hyperuricemia [1]; 25 mg/kg): 37.78%
Blood uric acid (rats with hyperuricemia [1]; 50 mg/kg): 110.83 ± 25.02 µmol/L
Uric acid reduction Percentage (rats with hyperuricemia [1]; 50 mg/kg): 46.58%
Blood uric acid (rats with hyperuricemia [1]; 100 mg/kg): 120.19 ± 68.99 µmol/L
Uric acid reduction Percentage (rats with hyperuricemia [1]; 100 mg/kg): 35.17%
Blood uric acid (rats with hyperuricemia [1]; 200 mg/kg): 127.56 ± 61.77 µmol/L
Uric acid reduction Percentage (rats with hyperuricemia [1]; 200 mg/kg): 27.36%
blood uric acid level compared to the model group (rats with hyperuricemia [1]; dose too low (underdose groups)): not significantly reduced
BUN (rats with hyperuricemia [2]; 6 mg/kg): 11.34 ± 4.11 mmol/L
SCr (rats with hyperuricemia [2]; 6 mg/kg): 51.72 ± 7.35 µmol/L
BUN (rats with hyperuricemia [2]; 12 mg/kg): 9.81 ± 3.76 mmol/L
SCr (rats with hyperuricemia [2]; 12 mg/kg): 47.56 ± 6.11 µmol/L
BUN (rats with hyperuricemia [2]; 25 mg/kg): 7.36 ± 1.71 mmol/L
SCr (rats with hyperuricemia [2]; 25 mg/kg): 40.73 ± 5.79 µmol/L
BUN (rats with hyperuricemia [2]; 50 mg/kg): 7.19 ± 1.00 mmol/L
SCr (rats with hyperuricemia [2]; 50 mg/kg): 41.30 ± 4.08 µmol/L
BUN (rats with hyperuricemia [2]; 100 mg/kg): 7.84 ± 2.04 mmol/L
SCr (rats with hyperuricemia [2]; 100 mg/kg): 42.15 ± 5.01 µmol/L
BUN (rats with hyperuricemia [2]; 200 mg/kg): 8.04 ± 3.96 mmol/L
SCr (rats with hyperuricemia [2]; 200 mg/kg): 44.30 ± 5.21 µmol/L
serum BUN level compared with the model group (rats with hyperuricemia [2]; after administration (p<0.01)): significantly reduced
serum SCr level compared with the model group (rats with hyperuricemia [2]; after administration (p<0.01)): significantly reduced
serum BUN level compared with the model group (rats with hyperuricemia [2]; dose too high): only a slight decreasing trend
serum SCr level compared with the model group (rats with hyperuricemia [2]; dose too high): only a slight decreasing trend
serum BUN level compared with the model group (rats with hyperuricemia [2]; dose too low): no significant difference
serum SCr level compared with the model group (rats with hyperuricemia [2]; dose too low): no significant difference
urate crystals deposition in kidney tissue (rats with hyperuricemia [3]; 50 mg/kg group): most obvious effect
urate crystals deposition in kidney tissue (rats with hyperuricemia [3]; after administration, versus model group): significantly reduced
urate crystals deposition in kidney tissue (rats with hyperuricemia [3]; lower dose): no significant reduction
pathology of kidney tissues (rats with hyperuricemia [4]; 25 mg/kg): tubular dilatation was reduced compared with that of the model group
pathology of kidney tissues (rats with hyperuricemia [4]; high dose group 100 mg/kg): tubular dilatation was reduced compared with that of the model group
pathology of kidney tissues (rats with hyperuricemia [4]; medium dose group 50 mg/kg): tubular dilatation was significantly reduced
protective effect on kidney injury combined with hyperuricemia (rats with hyperuricemia [4]): significant protective effect
pathology of kidney tissues (rats with hyperuricemia [4]; overdose group 200 mg/kg): mild tubular dilatation and tubular epithelial cell detachment, and tubular wall thinning in some of the tubules were observed locally
pathology of kidney tissues (rats with hyperuricemia [4]; underdose group (6 and 12 mg/kg)): severe tubular expansion, epithelial cell detachment, eosinophilic degeneration and inflammatory cell infiltration could still be observed
